Test results taken from patent publication US20250346629A1, “USE OF D-ENANTIOMERIC PEPTIDE LIGANDS OF MONOMERIC ALPHA-SYNUCLEIN FOR THE THERAPY OF VARIOUS SYNUCLEINOPATHIES” (PRIAVOID GMBH, priority 2021, published 2025).
Square brackets hold non-standard residues; d marks the D form. Peptide text beside a SMILES is read from it.

Tests used:
[1] = Solubility of D-peptides in buffer (UV-vis of supernatant after centrifugation); type: physicochemical; conditions: different buffers including PBS, aqueous buffer; different buffer conditions including PBS pH 7.4; 1 h at 37° C., 20 800×g centrifugation; read-out: starting concentration up to which the compound remained completely in the supernatant
Source text: D-enantiomeric peptides with C-terminal amidation were acquired from CASLO (CASLO, DK) as a lyophilized chloride salt powder having a purity of >95%.

[2] = biological target: 15N-labeled α-syn (Homo sapiens, UniProt P37840); experiment: NMR analysis (HSQC, PRE) of 15N-labeled α-syn with SVD-1a (FIG. 12); type: binding; conditions: 25 μM α-syn : SVD-1a 1:1, PBS pH 7.4, 10° C.
Protocol: Analogs of SVD-1a spin-labeled with nitroxyl radicals were produced by reacting (1-oxyl-2,2,5,5-tetramethyl-Δ3-pyrroline-3-methyl) methanethiosulfonate (MTSL) (Toronto Research Chemicals, USA) with SVD-1a_Cys, leading to covalent bonding of the nitroxyl radical spin label MTSL to the C-terminal D-cysteine residue. A fivefold molar excess of MTSL relative to the peptide, i.e. ˜4 mg MTSL (˜15 μmol) was dissolved in 90 μl N,N-dimethylformamide (DMF) and mixed with 810 μl 200 mM HEPES/NaOH buffer, pH 7.6. The solution was then added to ˜5 mg (˜3 μmol) of lyophilized SVD-1a_Cys. […]
The samples were produced at final concentrations of 25 μM full-length ^15N-labeled acetyl-α-syn in the absence (reference) and in the presence of an equimolar amount of SVD-1a (not isotope-labeled, therefore invisible to NMR) in PBS buffer, pH 7.4, with addition of 5% D2O as internal reference. 2D-^1H-^15N-HSQC spectra were recorded back-to-back with a Bruker AVANCE NEO spectrometer (Bruker, USA) at 1200 MHz proton Larmor frequency. […]
The NMR datasets were processed using the Bruker TopSpin software (Version 4.1.1) and visualized using CcpNmr Analysis (v2.4.2) (50). […] From the residue-specific changes in chemical shift in the ^1H and ^15N dimensions, an absolute change in chemical shift was calculated according to the following formula: […]

[3] = test system: PC12 cells; type: cell-based; conditions: rat, 24 h, 0.5 μM
Protocol: PC12 cells (Leibniz-Institut DSMZ, GE) were cultured at 37° C. on a collagen A-coated (Biochrom GmbH, GE) tissue culture flask in RPMI 1640 medium, supplemented with 5% fetal calf serum and 10% horse serum in an atmosphere humidified to 95% with 5% CO2. 10 000 cells per well in a volume of 100 μl were seeded into collagen A-coated 96-well plates (Thermo Fisher Scientific, USA and incubated for 24 hours at 37° C. and 300 rpm in a thermocycler.
Furthermore, 15 μM of the peptides alone, cell media, buffer without peptide and 0.1% Triton X-100 (cytotoxic compound) were used as controls. After further incubation in a 95% humidified atmosphere with 5% CO2 at 37° C. for 24 hours, the viability of the cells was measured using the Cell Proliferation Kit I (MTT) (Roche Applied Science, CH), following the manufacturer's protocol.
The MTT-formazan product was quantified by measuring the absorbance at 570 nm, corrected by subtracting the absorbance at 660 nm, in a FluoroStar Optima plate reader (BMG labtech, GE). All results were normalized to untreated cells grown only in medium. The significance test was carried out by one-way ANOVA with Bonferroni post-hoc analysis (OriginPro 2020, OriginLab, USA; n=4).
The significance test was carried out by one-way ANOVA with Bonferroni post-hoc analysis: […], ***p≤0.01. The means are stated±SD (n=4).

## CC[C@@H](C)[C@@H](NC(=O)[C@@H](Cc1c[nH]cn1)NC(=O)[C@@H](CCC(=O)O)NC(=O)[C@@H](CCC(N)=O)NC(=O)[C@@H](Cc1c[nH]c2ccccc12)NC(=O)[C@@H](Cc1ccc(O)cc1)NC(=O)[C@H](NC(=O)[C@@H](CCC(=O)O)NC(=O)[C@@H](Cc1c[nH]cn1)NC(=O)[C@H](NC(=O)[C@H]1CCCN1C(=O)[C@@H](CC(C)C)NC(=O)[C@H](N)CCCNC(=N)N)[C@H](C)O)[C@H](C)O)C(=O)N[C@H](Cc1c[nH]c2ccccc12)C(=O)N[C@H](Cc1c[nH]cn1)C(=O)N[C@H](C)C(=O)N[C@H](CCCNC(=N)N)C(=O)N[C@H](CCCNC(=N)N)C(=O)N[C@H](CCCNC(=N)N)C(=O)N[C@H](CCCNC(=N)N)C(=O)N[C@H](CCCNC(=N)N)C(N)=O [SVD-1a, rlpthetywqehiwharrrrr] (H-[dR][dL][dP][dT][dH][dE][dT][dY][dW][dQ][dE][dH][dI][dW][dH][dA][dR][dR][dR][dR][dR]-NH2)
[1]
  solubility at 1 h: ≥ 1000 µM
[2]
  binding region on α-syn (PRE intensity ratios): somewhat more pronounced (transient) bonding interaction of SVD-1a with residues in the C-terminal region of α-syn
[3]
  cells saved (cell viability): 82%
